The target of assay [1] is T1, RIPK1 (Homo sapiens, UniProt Q13546).
T1 construct: whole-cell lysates were prepared using a lysis buffer; endogenous in cells; host or cells: Jurkat
T1 sequence (Q13546 1-671): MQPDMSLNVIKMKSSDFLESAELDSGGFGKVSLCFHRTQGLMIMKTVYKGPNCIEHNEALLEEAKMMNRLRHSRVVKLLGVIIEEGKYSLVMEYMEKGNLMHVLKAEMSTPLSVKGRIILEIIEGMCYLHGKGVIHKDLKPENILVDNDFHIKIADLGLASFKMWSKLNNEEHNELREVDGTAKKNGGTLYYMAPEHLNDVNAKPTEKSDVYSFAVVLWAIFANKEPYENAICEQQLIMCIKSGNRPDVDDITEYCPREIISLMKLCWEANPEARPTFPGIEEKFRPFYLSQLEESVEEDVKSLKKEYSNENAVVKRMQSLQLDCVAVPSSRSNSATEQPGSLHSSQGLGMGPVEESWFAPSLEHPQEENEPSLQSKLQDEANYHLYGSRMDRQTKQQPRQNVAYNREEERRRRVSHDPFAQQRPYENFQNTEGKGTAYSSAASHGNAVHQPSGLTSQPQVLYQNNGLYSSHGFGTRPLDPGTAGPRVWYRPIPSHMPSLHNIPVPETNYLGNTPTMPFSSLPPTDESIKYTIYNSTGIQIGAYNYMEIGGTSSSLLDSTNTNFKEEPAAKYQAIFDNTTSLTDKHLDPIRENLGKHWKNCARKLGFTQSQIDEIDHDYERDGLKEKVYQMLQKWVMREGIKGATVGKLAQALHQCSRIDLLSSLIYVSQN
In words: RIPK1 degradation by Western blot in Jurkat cells. Format: cell-based. To be noted: 4 h pretreatment followed by LD4172. As for the experimental part: (§1) Cells were seeded into six-well plates at a density of 5 × 10^5 cells/mL in 2 mL of complete culture medium. Following an overnight adaptation period, cells were treated with serially diluted LD4172 compounds for 24 h. After treatment, whole-cell lysates were prepared using a lysis buffer (1×RIPA supplemented with protease and phosphatase inhibitor cocktail). Protein concentrations in the lysates were measured using the BCA protein assay. Subsequently, equal amounts of protein (20 µg) from each sample were loaded onto a sodium dodecyl sulfate-polyacrylamide gel and separated by electrophoresis (Bio-Rad) at 120 V for 1.5 h. The separated proteins were then transferred to a polyvinylidene fluoride (PVDF) membrane using a Transblot Turbo system (Bio-Rad).
(§2) After blocking for 1 h at room temperature in 1% BSA-TBST, the membranes were incubated overnight at 4 °C with specific primary antibodies (diluted at 1:1000 in TBST) targeting the proteins of interest, including anti-RIPK1 (3493, Cell Signaling Technology (CST)), anti-cleaved caspase 3 (9661, CST), anti-cleaved caspase7 (8438, CST), anti-cleaved PARP (5625, CST), anti-HMGB1 (3935, CST), anti-calreticulin (12238, CST), and anti-β-actin (4970, CST). […] All western blots were processed and quantified using ImageJ software, and protein levels were normalized to β-actin loading controls.
In general terms: In western blotting, separated proteins are transferred to a membrane and probed.

The target of assay [2] is T2, RIPK1 (Mus musculus, UniProt Q60855).
T2 construct: endogenous in cells; host or cells: B16F10
T2 sequence (Q60855 1-656): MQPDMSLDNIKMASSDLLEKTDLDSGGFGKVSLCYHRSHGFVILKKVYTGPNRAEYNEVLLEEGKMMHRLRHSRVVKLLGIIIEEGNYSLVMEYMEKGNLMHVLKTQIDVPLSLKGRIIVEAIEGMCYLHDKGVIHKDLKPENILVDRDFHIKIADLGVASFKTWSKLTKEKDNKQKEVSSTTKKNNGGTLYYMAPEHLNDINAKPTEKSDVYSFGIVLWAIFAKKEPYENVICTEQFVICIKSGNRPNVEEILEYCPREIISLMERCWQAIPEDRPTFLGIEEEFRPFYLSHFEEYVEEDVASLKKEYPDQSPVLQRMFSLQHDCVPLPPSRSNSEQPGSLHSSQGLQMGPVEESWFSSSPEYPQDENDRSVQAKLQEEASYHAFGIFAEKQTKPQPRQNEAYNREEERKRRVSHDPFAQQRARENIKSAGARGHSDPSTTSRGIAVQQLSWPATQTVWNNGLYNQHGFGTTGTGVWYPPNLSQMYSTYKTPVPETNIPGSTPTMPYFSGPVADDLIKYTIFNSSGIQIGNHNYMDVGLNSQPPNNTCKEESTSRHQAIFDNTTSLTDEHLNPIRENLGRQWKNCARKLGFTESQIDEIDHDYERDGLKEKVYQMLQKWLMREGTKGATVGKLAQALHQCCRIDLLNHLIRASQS
Nature of the assay: RIPK1 degradation by Western blot in B16F10 cells. The note with it: 4 h pretreatment followed by LD4172. Format: cell-based. The method, then:
as §1, §2

The test system of the next assay is NF-κB. Nature of the assay: NF-κB reporter assay in B16F10 cells. Format: cell-based, mouse. The note with it: TNFα 100 ng/mL, compound 1 μM. The method, then:
One million B16F10 cells were seeded in T25 flask. The next day, cells were transfected with the NanoLuc Reporter Vector with NF-κB Response Element (pNL3.2.NF-kB-RE; Promega; Cat. No. N1111) using Lipofectamine 3000 transfection reagent (Invitrogen) at a ratio of 1:3, DNA:Lipofectamine. After 24 h, cells were collected and seeded at 2000 cells per well in triplicate in an opaque 96 well plate. 24 h later the media was discarded and replaced with fresh DMEM media and treated with indicated cytokine cocktail for 24 h. Reporter expression was read out using the Nano-Glo Luciferase Assay System (Promega) according to the manufacturer’s instruction.
On the technique in general: A reporter such as luciferase makes a cellular process visible.

A further assay has as its system B16F10 cells. Nature of the assay: TNFα-mediated apoptosis in B16F10 cells (Annexin V/PI, caspase 3/7, PARP). Type of assay: cell-based, mouse. To be noted: 72 h. As for the experimental part: Fig. 3 LD4172 sensitizes B16F10 cells to TNFα-mediated apoptosis. B16F10 cells were treated with or without TNFα (100 ng/mL), Z-VAD-FMK (25 μM), LD4172 (1 μM), and/or T2I (1 μM) for 72 h. A NF-κB activity in B16F10 cells expressing a NanoLuc reporter for NF-κB response. Data represent the mean NF-κB activity ± SD (n = 3 biologically independent samples from two independent experiments). Statistical significance was determined using a two-tailed unpaired t-test, with P values indicated. B Representative flow cytometry dot plots showing apoptosis in B16F10 cells from three independent experiments (n = 3 biologically independent samples per experiment). […] Cell death was quantified by PI uptake using the Cytation 5 imager. D Top: Percentage of PI+ B16F10 cells after 72 h of the indicated treatments, calculated as PI+ (%) = (Number of PI+ cells/Total cells) × 100%, using the Cytation 5 imager. […] Statistical significance was determined using a two-tailed unpaired t-test, with P values indicated. […] E Top: Quantification of extracellular ATP levels secreted by B16F10 cells. Data represent mean extracellular ATP levels ± SD (n = 4 biologically independent samples from one experiment), with statistical significance determined by a two-tailed unpaired t-test, and P values indicated. […]

Another assay concerns B16F10 tumors. Nature of the assay: B16F10 syngeneic tumor model. To be noted: compound 20 mg/kg i.p. daily plus anti-PD1 100 µg every 3 days. Type of assay: in vivo, C57BL/6J mice. The method, then:
To establish a syngeneic mouse model, 3 × 10^5 B16F10 cells resuspended in PBS were mixed 1:1 with Matrigel (354262, Corning) and subcutaneously injected into the right flank of 7-week-old wild-type female C57BL/6J mice on day 0. Tumor sizes were measured on day 6, and mice were grouped such that the average tumor volume was ~100 mm³. Treatments began on day 7. Antibodies, including anti-PD1 (100 μg, BE0146, BioXcell) and anti-CD8 (500 μg, BE0004, BioXcell), were administered intraperitoneally every 3 days in 100 μL volumes. The RIPK1 degrader LD4172 and RIPK1 kinase inhibitor T2I were delivered in 200 μL of vehicle solution (30% PEG400, 5% Tween-80, 5% DMSO) daily via intraperitoneal injection (20 mg/kg). T-cell depletion or blocking was confirmed by flow cytometry in tumor-bearing mice. Tumors were measured every 3 days starting from day 7 post-injection until euthanasia. Mice were euthanized via CO2 inhalation when the tumor size reached 1.5 cm in the longest dimension or if severe necrosis was observed. Tumor volume was calculated using the formula: (L × W ²)/2, where L represents the length and W the width. To comply with ethical guidelines and ensure data quality, animals were humanely euthanized either when tumors reached the maximum permitted size or immediately before flow cytometry analysis, which required fresh tumor tissues. […]

Residues, ends and D or L forms follow the SMILES beside them. *: point of attachment. Cbz = O=C(OCc1ccccc1)*; CH2F = FC*

`CC(C)C[C@H](NC(=O)[C@H](CCc1ccccc1)NC(=O)CN1CCOCC1)C(=O)N[C@@H](Cc1ccccc1)C(=O)N[C@@H](CC(C)C)C(=O)[C@@]1(C)CO1` [carfilzomib]: the “LD4172-induced RIPK1 degradation after pretreatment” value at RIPK1 [1] and on RIPK1 [2] was “reversed” throughout.

Take `CCn1cc(-c2ccc3c(c2)CCN3C(=O)Cc2cccc(OC(F)(F)F)c2)c2c(N)ncnc21` [T2I]: the “TNF-α-induced NF-κB activity” value in the assay with NF-κB is listed as “not”. In addition, the TNFα-mediated apoptosis result in the assay with B16F10 cells (TNFα 100 ng/mL, compound 1 μM) is “did not trigger TNFα-mediated apoptosis”. Also, the “tumor response in combination with anti-PD1” value in the assay with B16F10 tumors is “failed to sensitize B16F10 tumors to anti-PD1 treatment”.

On to `COC(=O)C[C@H](NC(=O)[C@H](C)NC(=O)[C@@H](NC(=O)OCc1ccccc1)C(C)C)C(=O)CF` [Z-VAD-FMK] (Cbz-Val-Ala-Asp(OMe)-CH2F), for which the “reversal of apoptosis induced by TNFα and LD4172” value in the assay on B16F10 cells (Z-VAD-FMK 25 μM) is “reversed”.

Regarding `NS(=O)(=O)OC[C@@H]1C[C@@H](n2ccc3c(N[C@H]4CCc5ccccc54)ncnc32)C[C@@H]1O` [MLN4924], the “LD4172-induced RIPK1 degradation after pretreatment” value at RIPK1 [1] and on RIPK1 [2] was “reversed” throughout.

For the origin of these results see publication PMC11649918, “Development of a RIPK1 degrader to enhance antitumor immunity” (Nature Communications, 2024).
